This note sets out measurements from paper PMC9496042 (2022).

For test [1], the system named is Apt-14 (DNA, aptamer) GCTGTGTGACTCCTGCAAACGGCCAGTGGGTGGGGCGGGTGGCGGCCGGTTGTTTCTATGCGCAGCTGTATCTTGTCTCC
The test can be described thus: graphene oxide fluorescence recovery (FAM). To be noted: 100 mM NaCl, 5 mM KCl, 2 mM MgCl2, 1 mM CaCl2; 20 mM Tris-HCl pH 7.6 (binding buffer); aptamer titrated at fixed FF (1 M [sic]); GO:ssDNA 20:1.

In test [2] the test system is Apt-14t (DNA, aptamer) ACGGCCAGTGGGTGGGGCGGGTGGCGGCCGGTTGTTTCTATGC
The test can be described thus: graphene oxide fluorescence recovery (FAM). To be noted: 100 mM NaCl, 5 mM KCl, 2 mM MgCl2, 1 mM CaCl2; for binding: binding buffer pH 7.6, 100 nM aptamer, 1 µM compound.

Test [3] deals with Apt-20 (DNA, aptamer) GCTGTGTGACTCCTGCAAGCGCAATGATGTGTTGTGGGTGGGCGGGTGGCTCATTGCGTGGGCAGCTGTATCTTGTCTCC
The test can be described thus: graphene oxide fluorescence recovery (FAM). To be noted: 100 mM NaCl, 5 mM KCl, 2 mM MgCl2, 1 mM CaCl2; 20 mM Tris-HCl pH 7.6 (binding buffer); aptamer titrated at fixed FF (1 M [sic]).

For test [4], the system named is Apt-14t (AuNP assay) (DNA, aptamer) ACGGCCAGTGGGTGGGGCGGGTGGCGGCCGGTTGTTTCTATGC
The test can be described thus: AuNP colorimetry (A650/A520). To be noted: 100 mM NaCl, 5 mM KCl, 2 mM MgCl2, 1 mM CaCl2; binding buffer pH 7.6, 37 °C; 200 nM aptamer; NaCl added after binding to aggregate AuNPs.

The subject of test [5] is Apt-15 (DNA, aptamer) GCTGTGTGACTCCTGCAACACGAACGTTTCCGTGGGTGGGTGGGTGGCCAAATGTCGCGTGGCAGCTGTATCTTGTCTCC
The test can be described thus: graphene oxide fluorescence recovery (FAM). To be noted: 100 mM NaCl, 5 mM KCl, 2 mM MgCl2, 1 mM CaCl2; 20 mM Tris-HCl pH 7.6 (binding buffer); aptamer titrated at fixed FF (1 M [sic]).

Test [6] concerns Apt-1 (DNA, aptamer) GCTGTGTGACTCCTGCAAGGTCCTCGGGTGGTGGGTGGGCTCGGGTTTTTGTTCACTCTCCGCAGCTGTATCTTGTCTCC
The test can be described thus: graphene oxide fluorescence recovery (FAM). To be noted: 100 mM NaCl, 5 mM KCl, 2 mM MgCl2, 1 mM CaCl2; 20 mM Tris-HCl pH 7.6 (binding buffer); aptamer titrated at fixed FF (1 M [sic]).

On to `CS(=O)(=O)c1ccc([C@@H](O)[C@@H](CF)NC(=O)C(Cl)Cl)cc1`, for which the Kd in test [1] turned out to be 0.03465 ± 0.0057 µM; in test [2] (20 mM Tris-HCl pH 7.6 (binding buffer), aptamer titrated 0-200 nM at fixed FF (1 M [sic])), 0.00466 ± 0.00075 µM; in test [3] it was 0.05944 ± 0.0169 µM; in test [5], 0.05741 ± 0.018 µM; in test [6], 0.0709 ± 0.02236 µM. The binding result in test [4] was “yes”.
Take `CS(=O)(=O)c1ccc([C@@H](O)[C@@H](CO)NC(=O)C(Cl)Cl)cc1`: the binding entry in test [2] was “weak”.
For `CS(=O)(=O)c1ccc([C@@H](O)[C@H](N)CF)cc1`, the binding entry in test [2] and in test [4] was “yes” each time.
In the case of `O=C(N[C@H](CO)[C@H](O)c1ccc([N+](=O)[O-])cc1)C(Cl)Cl`, in test [2], the binding entry was “weak”.

Usually Kd stands for the equilibrium constant for the complex coming apart. High values mean weaker binding, low ones tighter binding.
